Assay results: ChEMBL document CHEMBL5120914, “An O-Benzyl Phosphonamidate Prodrug of Tenofovir for the Treatment of Hepatitis B Virus Infection” (J Med Chem, 2022)

What was measured:
[1] = Cytotoxicity against human HepG2 cells assessed as reduction in cell growth incubated for 3 days by MTT assay; assay type: toxicity, cell-based; details: time 3 day
Hepatitis B virus [2] = test: Antiviral activity against Hepatitis B virus infected in human HepG2.2.15 cells assessed as inhibition of viral DNA replication at 1 uM measured after 6 days by FQ-PCR analysis relative to control; assay type: functional, HepG2 2.2.15; design: scale not given: the % may be the effect or the level left; details: time 6 day
Hepatitis B virus [3] = test: Antiviral activity against Hepatitis B virus infected in human HepG2.2.15 cells assessed as inhibition of viral DNA replication measured for 9 days by FQ-PCR analysis; assay type: functional, organism-based; details: HepG2 2.2.15, 216 h
Hepatitis B virus [4] = test: Antiviral activity against Hepatitis B virus infected in human HepG2.2.15 cells assessed as inhibition of viral DNA replication at 20 uM measured after 6 days by FQ-PCR analysis relative to control; assay type: functional, HepG2 2.2.15; design: scale not given: the % may be the effect or the level left; details: time 6 day

Cc1ccccc1COP(=O)(CO[C@H](C)Cn1cnc2c(N)ncnc21)N[C@@H](C)C(=O)OCC(C)(C)C (stereo partly specified)
CC50 at 72 h [1]: > 500 µM
Activity (Hepatitis B virus [2]): 35.22%

CC(C)OC(=O)[C@H](C)NP(=O)(CO[C@H](C)Cn1cnc2c(N)ncnc21)OCc1ccccc1Cl (stereo partly specified)
CC50 at 72 h [1]: > 500 µM
Activity (Hepatitis B virus [2]): 42.6%

CC(C)OC(=O)[C@H](C)NP(=O)(CO[C@H](C)Cn1cnc2c(N)ncnc21)OCc1ccc([N+](=O)[O-])cc1 (stereo partly specified)
CC50 at 72 h [1]: > 500 µM
Activity (Hepatitis B virus [2]): 22.15%

Cc1cccc(COP(=O)(CO[C@H](C)Cn2cnc3c(N)ncnc32)N[C@@H](C)C(=O)OC(C)C)c1 (stereo partly specified)
CC50 at 72 h [1]: > 500 µM
EC50 (Hepatitis B virus [3]): 0.181 µM
Activity (Hepatitis B virus [2]): 69.34%

CCCCOC(=O)[C@H](C)NP(=O)(CO[C@H](C)Cn1cnc2c(N)ncnc21)OCc1ccccc1C (stereo partly specified)
CC50 at 72 h [1]: > 500 µM
Activity (Hepatitis B virus [2]): 22.62%

Cc1ccccc1COP(=O)(CO[C@H](C)Cn1cnc2c(N)ncnc21)N[C@@H](C)C(=O)OC(C)C (stereo in doubt; 1a-2)
Activity (Hepatitis B virus [2]; 144 h, 1 µM): 85.4%

CC(C)OC(=O)[C@H](C)NP(=O)(CO[C@H](C)Cn1cnc2c(N)ncnc21)OCc1ccc(Cl)cc1 (stereo partly specified)
CC50 at 72 h [1]: > 500 µM
EC50 (Hepatitis B virus [3]): 0.145 µM
Activity (Hepatitis B virus [2]): 67.85%

CCOC(=O)[C@H](C)NP(=O)(CO[C@H](C)Cn1cnc2c(N)ncnc21)OCc1ccccc1C (stereo partly specified)
CC50 at 72 h [1]: > 500 µM
Activity (Hepatitis B virus [2]): 41.27%

CC(C)OC(=O)[C@H](C)NP(=O)(CO[C@H](C)Cn1cnc2c(N)ncnc21)OCc1ccc(Br)cc1 (stereo partly specified)
CC50 at 72 h [1]: > 500 µM

CC(C)OC(=O)[C@H](C)NP(=O)(CO[C@H](C)Cn1cnc2c(N)ncnc21)OCc1ccc(F)cc1 (stereo partly specified)
CC50 at 72 h [1]: > 500 µM
Activity (Hepatitis B virus [2]): 43.65%

Nc1ccn([C@@H]2CS[C@H](CO)O2)c(=O)n1 [LAMIVUDINE]
CC50 at 72 h [1]: > 500 µM
Activity (Hepatitis B virus [4]): 77.32%

CC(C)OC(=O)[C@H](C)NP(=O)(CO[C@H](C)Cn1cnc2c(N)ncnc21)OCc1cccc(C(F)(F)F)c1 (stereo partly specified)
CC50 at 72 h [1]: > 500 µM
Activity (Hepatitis B virus [2]): 35.34%

CC(C)OC(=O)[C@H](C)NP(=O)(CO[C@H](C)Cn1cnc2c(N)ncnc21)OCc1ccccc1C(F)(F)F (stereo partly specified)
CC50 at 72 h [1]: > 500 µM
Activity (Hepatitis B virus [2]): 46.76%

Cc1ccccc1COP(=O)(CO[C@H](C)Cn1cnc2c(N)ncnc21)N[C@@H](C)C(=O)OC1CCCC1 (stereo partly specified)
CC50 at 72 h [1]: > 500 µM
Activity (Hepatitis B virus [2]): 41.01%

CC(C)OC(=O)[C@H](C)NP(=O)(CO[C@H](C)Cn1cnc2c(N)ncnc21)OCc1ccc(C(F)(F)F)cc1 (stereo partly specified)
CC50 at 72 h [1]: > 500 µM
EC50 (Hepatitis B virus [3]): 0.147 µM
Activity (Hepatitis B virus [2]): 63.45%

Cc1ccccc1COP(=O)(CO[C@H](C)Cn1cnc2c(N)ncnc21)N[C@@H](C)C(=O)OCC(C)C (stereo partly specified)
CC50 at 72 h [1]: > 500 µM
Activity (Hepatitis B virus [2]): 25.78%

CC(C)OC(=O)[C@H](C)NP(=O)(CO[C@H](C)Cn1cnc2c(N)ncnc21)OCc1ccccc1[N+](=O)[O-] (stereo partly specified)
CC50 at 72 h [1]: > 500 µM
EC50 (Hepatitis B virus [3]): 0.078 µM
Activity (Hepatitis B virus [2]): 79.74%

Cc1ccccc1COP(=O)(CO[C@H](C)Cn1cnc2c(N)ncnc21)N[C@@H](C)C(=O)OC1CCCCC1 (stereo partly specified)
CC50 at 72 h [1]: > 500 µM
Activity (Hepatitis B virus [2]): 21.46%

CC(C)OC(=O)[C@H](C)NP(=O)(CO[C@H](C)Cn1cnc2c(N)ncnc21)OCc1cccc(F)c1 (stereo partly specified)
CC50 at 72 h [1]: > 500 µM
EC50 (Hepatitis B virus [3]): 0.027 µM
Activity (Hepatitis B virus [2]): 68.11%
